Measurements: patent US20050009730A1, “Treatment of cns disorders using cns target modulators” (priority 2001, published 2005)
Read-outs that look alike come from different tables or passages of the source. Marks after values point to notes of the source that are not given here.

Tests used:
Histamine, H2 = Histamine, H2 (Homo sapiens, UniProt P25021); assay: Receptor selectivity binding assay comparison; details: 1.0E−6
[1] = target: T1, Muscarinic, M2 (Human Recombinant) (Homo sapiens, UniProt P08172); assay: Receptor selectivity binding assay comparison; details: 1.0E−6
T1 sequence (P08172 1-466): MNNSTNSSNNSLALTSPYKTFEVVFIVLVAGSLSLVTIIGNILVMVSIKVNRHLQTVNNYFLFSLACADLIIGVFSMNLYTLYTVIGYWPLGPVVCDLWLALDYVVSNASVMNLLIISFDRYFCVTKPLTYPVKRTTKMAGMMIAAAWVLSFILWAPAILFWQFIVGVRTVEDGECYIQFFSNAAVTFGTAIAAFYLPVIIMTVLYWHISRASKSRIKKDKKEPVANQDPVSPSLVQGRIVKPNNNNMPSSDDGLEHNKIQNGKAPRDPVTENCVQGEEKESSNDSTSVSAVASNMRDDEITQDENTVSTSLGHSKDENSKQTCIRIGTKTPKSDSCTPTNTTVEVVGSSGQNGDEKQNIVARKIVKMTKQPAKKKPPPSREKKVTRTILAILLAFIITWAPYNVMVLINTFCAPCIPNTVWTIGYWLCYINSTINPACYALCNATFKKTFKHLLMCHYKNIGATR

HERG = HERG (Homo sapiens, UniProt Q12809)
HERG, sequence (Q12809 whole entry): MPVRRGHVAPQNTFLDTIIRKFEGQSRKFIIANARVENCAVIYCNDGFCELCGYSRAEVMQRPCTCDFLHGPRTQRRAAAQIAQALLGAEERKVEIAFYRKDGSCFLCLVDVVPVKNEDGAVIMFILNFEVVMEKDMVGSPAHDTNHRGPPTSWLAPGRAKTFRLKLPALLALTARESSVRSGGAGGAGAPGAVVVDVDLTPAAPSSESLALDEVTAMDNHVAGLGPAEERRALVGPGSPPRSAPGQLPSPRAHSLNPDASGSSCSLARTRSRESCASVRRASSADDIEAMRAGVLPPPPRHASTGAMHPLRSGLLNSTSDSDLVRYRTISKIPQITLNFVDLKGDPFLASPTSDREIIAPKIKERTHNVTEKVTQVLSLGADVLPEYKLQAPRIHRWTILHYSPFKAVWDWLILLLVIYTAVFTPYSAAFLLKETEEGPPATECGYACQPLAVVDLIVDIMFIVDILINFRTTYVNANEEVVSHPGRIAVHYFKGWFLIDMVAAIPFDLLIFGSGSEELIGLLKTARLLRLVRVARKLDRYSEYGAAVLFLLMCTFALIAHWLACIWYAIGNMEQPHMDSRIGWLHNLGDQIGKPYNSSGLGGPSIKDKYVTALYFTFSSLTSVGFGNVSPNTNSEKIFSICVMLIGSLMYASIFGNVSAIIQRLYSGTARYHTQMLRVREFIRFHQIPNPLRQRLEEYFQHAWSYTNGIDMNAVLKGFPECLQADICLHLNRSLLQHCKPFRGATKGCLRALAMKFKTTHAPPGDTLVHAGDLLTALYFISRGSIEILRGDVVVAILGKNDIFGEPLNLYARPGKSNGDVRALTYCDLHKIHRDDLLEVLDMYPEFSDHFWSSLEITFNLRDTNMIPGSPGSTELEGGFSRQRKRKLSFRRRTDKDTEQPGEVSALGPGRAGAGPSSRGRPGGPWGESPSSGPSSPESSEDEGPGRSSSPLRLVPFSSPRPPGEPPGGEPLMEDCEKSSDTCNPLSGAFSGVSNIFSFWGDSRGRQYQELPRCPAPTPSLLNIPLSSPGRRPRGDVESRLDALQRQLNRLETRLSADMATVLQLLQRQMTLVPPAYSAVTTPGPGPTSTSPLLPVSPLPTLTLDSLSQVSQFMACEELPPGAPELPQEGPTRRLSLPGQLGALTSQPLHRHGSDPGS

Histamine, H1 = Histamine, H1 (Homo sapiens, UniProt P35367); assay: H1 binding assay by displacement of known standards
Histamine, H1, sequence (P35367 whole entry): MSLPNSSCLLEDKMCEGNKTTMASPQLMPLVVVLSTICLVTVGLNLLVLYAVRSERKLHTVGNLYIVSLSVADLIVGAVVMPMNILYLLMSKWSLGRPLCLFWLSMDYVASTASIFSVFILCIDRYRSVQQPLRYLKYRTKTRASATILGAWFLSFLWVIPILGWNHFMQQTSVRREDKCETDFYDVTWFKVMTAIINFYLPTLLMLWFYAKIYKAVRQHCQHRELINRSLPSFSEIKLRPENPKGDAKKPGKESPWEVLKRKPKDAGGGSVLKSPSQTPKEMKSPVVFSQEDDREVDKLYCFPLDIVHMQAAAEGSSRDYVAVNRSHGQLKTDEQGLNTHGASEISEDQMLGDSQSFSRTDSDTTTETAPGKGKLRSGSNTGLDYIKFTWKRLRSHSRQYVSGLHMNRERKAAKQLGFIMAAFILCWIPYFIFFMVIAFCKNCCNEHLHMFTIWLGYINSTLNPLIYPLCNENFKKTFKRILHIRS
Experimental: (§1) The following binding assays were performed on the Series 11 compounds described above by displacement of known standards from the H1, M1, M2, and M3 receptors, wherein H1 is a histamine receptor, and M1, M2, and M3 are muscarinic receptors.
The binding studies against the histamine receptor, H1, indicate binding affinity, and therefore the results of the binding assays are an indication of the activity of the compound. […]
The following binding assays were performed on additional compounds described above by displacement of known standards from the H1, M1, M2, and M3 receptors, wherein H1 is a histamine receptor, and M1, M2, and M3 are muscarinic receptors.
The binding assays for H1 was the same as described in Example 10 and the M1, M2, and M3 binding assays are the same as those described in Example 10 for human recombinant expressed cells.

[2] = target: T2, Muscarinic, M1 (Human Recombinant) (Homo sapiens, UniProt P11229); assay: Receptor selectivity binding assay comparison; details: 1.0E−6
T2 sequence (P11229 1-460): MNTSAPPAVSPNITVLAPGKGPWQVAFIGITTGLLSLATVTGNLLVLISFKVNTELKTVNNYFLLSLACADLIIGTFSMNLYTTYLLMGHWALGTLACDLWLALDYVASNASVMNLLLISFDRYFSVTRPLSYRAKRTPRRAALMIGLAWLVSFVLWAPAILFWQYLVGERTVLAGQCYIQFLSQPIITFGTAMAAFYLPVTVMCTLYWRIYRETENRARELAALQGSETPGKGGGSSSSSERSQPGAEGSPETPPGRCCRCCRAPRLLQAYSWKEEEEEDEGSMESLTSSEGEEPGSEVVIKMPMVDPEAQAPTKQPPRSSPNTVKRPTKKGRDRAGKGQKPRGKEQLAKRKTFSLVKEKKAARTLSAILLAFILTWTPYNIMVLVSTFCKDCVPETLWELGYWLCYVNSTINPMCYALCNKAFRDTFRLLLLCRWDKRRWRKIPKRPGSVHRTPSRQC

[3] = target: Norepinephrine Transporter (Homo sapiens, UniProt P23975); assay: Receptor selectivity binding assay comparison; details: 1.0E−6
Norepinephrine Transporter, sequence (P23975 whole entry, species assumed): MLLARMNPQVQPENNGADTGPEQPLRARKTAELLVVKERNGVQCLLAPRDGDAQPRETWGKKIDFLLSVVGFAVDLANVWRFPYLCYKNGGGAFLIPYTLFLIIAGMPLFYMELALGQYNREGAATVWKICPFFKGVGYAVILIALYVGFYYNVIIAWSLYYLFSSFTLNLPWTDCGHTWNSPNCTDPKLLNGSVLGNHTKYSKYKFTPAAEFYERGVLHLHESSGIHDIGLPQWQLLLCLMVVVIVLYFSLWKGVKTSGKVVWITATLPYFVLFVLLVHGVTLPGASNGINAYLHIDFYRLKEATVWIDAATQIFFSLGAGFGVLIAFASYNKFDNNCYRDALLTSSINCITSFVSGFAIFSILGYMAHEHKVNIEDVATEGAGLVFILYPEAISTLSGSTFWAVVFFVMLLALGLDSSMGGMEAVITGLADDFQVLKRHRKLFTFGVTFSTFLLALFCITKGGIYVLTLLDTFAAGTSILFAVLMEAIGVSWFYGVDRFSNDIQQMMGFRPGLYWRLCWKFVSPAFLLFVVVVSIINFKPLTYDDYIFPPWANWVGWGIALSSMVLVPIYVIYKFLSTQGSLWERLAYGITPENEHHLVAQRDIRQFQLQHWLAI

Male Wistar rats = assay: Sleep-wakefulness, locomotor activity and body temperature monitoring (SCORE-2000), treatment at CT-18; details: 30 mg/kg PO, at CT-18
M1 muscarinic receptor = target: T3, M1 muscarinic receptor (Homo sapiens, UniProt P11229); assay: M1 binding assay by displacement of known standards (Example 11)
T3 sequence (P11229 1-460): T2 sequence (P11229 1-460)
Experimental: as §1
(§2) In addition, the binding studies against the muscarinic receptors indicate the extent to which the compounds bind the muscarinic receptors, responsible for anti-cholinergic activity of the compound. Binding to muscarinic receptors results in several undesired side effects of many known antihistamines, e.g., dry-mouth. A decrease in the binding of the compounds to the M1-M3 receptors, relative the binding of the compound to the H1 receptor, is an indication of the greater specificity of the compound for the histamine receptor over the muscarinic receptor.

M2 muscarinic receptor = target: T4, M2 muscarinic receptor (Homo sapiens, UniProt P08172); assay: M2 binding assay by displacement of known standards (Example 11)
T4 sequence (P08172 1-466): T1 sequence (P08172 1-466)
Experimental: as §1, §2

M3 muscarinic receptor = M3 muscarinic receptor (Homo sapiens, UniProt P20309); assay: M3 binding assay by displacement of known standards (Example 11)
M3 muscarinic receptor, sequence (P20309 whole entry): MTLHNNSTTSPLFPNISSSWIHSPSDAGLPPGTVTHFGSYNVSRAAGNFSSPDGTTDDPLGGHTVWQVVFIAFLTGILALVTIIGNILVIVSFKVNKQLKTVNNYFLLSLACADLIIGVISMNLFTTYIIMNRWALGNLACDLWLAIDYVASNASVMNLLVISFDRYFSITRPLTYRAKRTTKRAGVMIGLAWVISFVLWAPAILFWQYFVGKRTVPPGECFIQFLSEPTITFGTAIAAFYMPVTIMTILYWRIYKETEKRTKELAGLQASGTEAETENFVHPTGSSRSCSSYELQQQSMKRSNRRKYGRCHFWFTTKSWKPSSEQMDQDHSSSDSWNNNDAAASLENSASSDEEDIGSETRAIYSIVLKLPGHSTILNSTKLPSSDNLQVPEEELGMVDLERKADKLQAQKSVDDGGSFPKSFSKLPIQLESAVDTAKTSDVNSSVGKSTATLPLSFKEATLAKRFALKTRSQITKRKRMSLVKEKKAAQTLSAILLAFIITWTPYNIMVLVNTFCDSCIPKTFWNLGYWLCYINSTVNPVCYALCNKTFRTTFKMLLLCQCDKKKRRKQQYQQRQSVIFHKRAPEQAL
Experimental: as §1, §2

muscarinic receptors = assay: Muscarinic receptor binding, M1, M2 and M3 taken together in the conclusions
Experimental: as §1, §2

[4] = in human blood; cited from earlier work

Histamine, H2, sequence (P25021 whole entry): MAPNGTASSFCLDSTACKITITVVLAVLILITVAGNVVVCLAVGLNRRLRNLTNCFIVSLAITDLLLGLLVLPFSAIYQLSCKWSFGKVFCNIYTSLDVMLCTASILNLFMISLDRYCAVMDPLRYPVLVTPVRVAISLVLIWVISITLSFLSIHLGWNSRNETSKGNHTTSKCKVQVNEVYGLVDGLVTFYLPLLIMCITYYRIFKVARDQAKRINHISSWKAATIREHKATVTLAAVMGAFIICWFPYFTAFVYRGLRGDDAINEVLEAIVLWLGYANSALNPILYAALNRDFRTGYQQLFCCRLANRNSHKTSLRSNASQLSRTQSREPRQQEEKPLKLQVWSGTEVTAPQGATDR

With `CN(C)CCC=C1c2ccccc2COc2ccccc21` [Doxepin, reference compound] the “Percent Inhibition, Histamine, H2” value (Histamine, H2) was 74.7%, the “Percent Inhibition, Muscarinic, M2 (Human Recombinant)” value [1] was […] and the “Percent Inhibition, HERG” value (HERG) was 23%**.

For `O=C(O)CCN1CCC(=C2c3ccccc3COc3ccccc32)CC1` [Series 8a], the Ki (Histamine, H1; read-out: Receptor Binding Data (Ki nM) H1) was 62.5 nM, the “Percent Inhibition, Histamine, H2” value (Histamine, H2) was 33.4% and the “Percent Inhibition, Muscarinic, M1 (Human Recombinant)” value [2] was 3.3%. The “Percent Inhibition, Norepinephrine Transporter” value [3] was −3.9%, the “Percent Inhibition, HERG” value (HERG) was 4% and the “Average Bout-Length” value (Male Wistar rats) was 12.2 min. For the same compound, the “Maximum Bout Length” value (Male Wistar rats) was 28.9 min, the “NREM Accum.” value (Male Wistar rats) was 65.8 min and the “NREM Peak” value (Male Wistar rats) was 75.5 %/hr. It also gave an Onset (Male Wistar rats) of 65 min.

In the case of `O=C(CCN1CCC(=C(c2ccccc2)c2ccccc2)CC1)O[C@H]1CCOC1` [Series 11g], the IC50 (Histamine, H1) is reported as 0.196 µM, the “difference in binding affinity towards the H1 receptor between the enantiomeric compounds” value (Histamine, H1) is reported as “do not result in a substantial difference” and the Ki (Histamine, H1; read-out: H1 Ki) is reported as 86.1 nM. It also gave an IC50 (M1 muscarinic receptor) of 4.68 µM, a Ki (M1 muscarinic receptor) of 0.36 µM and an IC50 (M2 muscarinic receptor) of 5.7 µM. The Ki (M2 muscarinic receptor) was 2.08 µM, the IC50 (M3 muscarinic receptor) was 5.71 µM and the Ki (M3 muscarinic receptor) was 1.56 µM. The “difference in binding affinity towards the muscarinic receptors between the enantiomeric compounds” value (muscarinic receptors) was “do show a substantial difference”.

For `Nc1ncnc2c1ncn2[C@@H]1O[C@H](CO)[C@@H](O)[C@H]1O` [adenosine], the half-life [4] is given as under 1 s.
